The record followed here is article PMC10349806 (Nature Communications, 2023).

One experiment deals with T1, PfCRT variant F287A (Plasmodium falciparum, UniProt Q9N623, A220S/F287A/I356T/K76T/M74I/N326S/N75E/Q271E/R371I).
T1 sequence (Q9N623 1-424 M74I/N75E/K76T/A220S/Q271E/F287A/N326S/I356T/R371I): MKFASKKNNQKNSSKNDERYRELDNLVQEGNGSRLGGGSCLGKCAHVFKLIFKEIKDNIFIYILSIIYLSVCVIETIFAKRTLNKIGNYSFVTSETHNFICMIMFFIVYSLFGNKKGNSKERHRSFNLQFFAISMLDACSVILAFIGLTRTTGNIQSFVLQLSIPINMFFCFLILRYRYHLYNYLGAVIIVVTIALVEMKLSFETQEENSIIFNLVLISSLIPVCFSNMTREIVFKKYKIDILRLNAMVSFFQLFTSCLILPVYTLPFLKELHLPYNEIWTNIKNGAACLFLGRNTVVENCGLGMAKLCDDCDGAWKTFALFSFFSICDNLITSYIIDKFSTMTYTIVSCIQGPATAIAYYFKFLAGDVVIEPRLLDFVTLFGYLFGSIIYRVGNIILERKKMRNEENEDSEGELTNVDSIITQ
Description: CQ uptake assay, oocytes expressing F287A. The class given is cell-based. How it is done: (§1) Site-directed mutagenesis of PfCRT^Dd2 was performed as described using the megaprimer method with overlap extension[21],[54]. The primer pairs used are listed in Supplementary Table 6. Please note that a codon-optimized and oocyte-adapted version of PfCRT^Dd2 was used[22] (Supplementary Fig. 16). The resulting DNA fragment was cloned into the SP64T expression vector and verified by sequencing.
(§2) Oocytes were obtained as described previously. Briefly, adult (>2 years old) female X. laevis frogs (NASCO) were anesthetized in a cooled solution of ethyl 3-amino benzoate methanesulfonate (0.1%, w/v), followed by a surgical removal of parts of the ovary. The ovary lobes were carefully dissected and small pieces of oocytes were incubated in Ca^2+-free ND96 buffer (96 mM NaCl, 2 mM KCl, 1 mM MgCl2 buffered with 5 mM HEPES/NaOH, pH 7.5) supplemented with collagenase D (0.1%, w/v; Roche), BSA (0.5%, w/v), and 9 mm Na2HPO4 at 18 °C for 14-16 h while gentle shaking. After incubation, the oocytes were carefully washed several times with ND96 buffer (96 mM NaCl, 2 mM KCl, 1.8 mM CaCl2, 1 mM MgCl2 buffered with 5 mM HEPES/NaOH, pH 7.5) supplemented with 100 mg l^−1 gentamycin). Defolliculated and healthy-looking stage V-VI oocytes were manually selected for RNA microinjection. The RNA was generated as following: The codon-optimized sequences of PfCRT variants were cloned into the pSP64T expression vector. After vector linearization using the restriction endonucleases BamHI or SalI (New England Biolabs), transcription was performed using the in vitro SP6 mMessage mMachine Kit (Ambion)[34]. The obtained RNA was kept at −80 °C and diluted with nuclease-free water to a concentration of 0.6 μg μl^−1. Precision-bore glass capillary tubes (3.5-inch glass capillaries; Drummond Scientific Co.) were pulled on a vertical puller (P-87 Flaming/Brown micropipette puller, Sutter Instrument Co.), graduated, and placed on a microinjector (Nanoject II Auto-Nanoliter Injector, Drummond Scientific Co.). 50 nl of nuclease-free water alone (control oocytes) or 50 nl of 0.6 μg μl^−1 RNA were injected under stereomicroscopic control. Injected oocytes were incubated for 46–72 h at 18 °C with twice-daily buffer changes before usage in experiments.
(§3) Drug uptake assays were performed as described previously[21],[22],[24],[34]. […] The direction of radio-labeled drug transport is here from the mostly acidic extracellular solution (pH 4.5 or 6.0, as indicated) into the oocyte cytosol (pH ∼ 7.2), which corresponds to the efflux of drug from the acidic digestive vacuole (pH 5.2) into the parasite cytoplasm (pH 7.2). The topology of PfCRT in the oolemma is such that both the N- and C-terminus face the extracellular milieu[3],[22]. In the parasite, the N- and C-terminus face the lumen of the digestive vacuole. CQ uptake kinetics were performed by incubating oocytes in ND96 buffer adjusted to a pH of 4.5, 5.0, 5.5, or 6.0 and supplemented with 50 nM [^3H]CQ and one of 7 different CQ concentrations (10 µM, 50 µM, 100 µM, 200 µM, 300 µM, 400 µM, 500 µM CQ). The reaction was stopped at the 60 min time point, which is in the linear uptake range[22],[34] (Supplementary Fig. 17). For determination of the amount of drug uptake for each oocyte, the reaction medium was removed and the oocytes were washed three times with 2 ml of ice-cold ND96 buffer. Each oocyte was individually transferred to a scintillation vial containing 5% sodium dodecyl sulfate (200 μl) for lysis. The radioactivity of each sample was measured using a liquid scintillation analyzer Tri-Carb 4910 TR (PerkinElmer). Oocytes that were injected with water instead of RNA were analyzed in parallel, representing the uptake of a drug by diffusion and/or endogenous permeation pathways. The resulting value represents the “background“ level of drug accumulation in oocytes (in-depth discussion in[22]). […]

Another experiment deals with PfCRT variant E207N. Description: CQ uptake assay, oocytes expressing E207N. The experiment is classed as cell-based, Plasmodium falciparum. On the procedure: as §1, §2, §3
The mark [1] stands for this setting: F287A, 50 µM CQ, 1 h, mean ± SEM.
The mark [2] stands for this setting: E207N, 50 µM CQ, 1 h, mean ± SEM.

“And” between values parts separate entries of the source, which are not always exact repeats. Identical values can stand only once.

Turning to `CCN(CC)CCCC(C)Nc1ccnc2cc(Cl)ccc12` (stereo not drawn) [CQ, chloroquine], the “Activity at pH 4.5” value at PfCRT variant F287A (setting [1]) is given as 1.50 ± 0.05 pmol h-1 oocyte-1; with PfCRT variant E207N (setting [2]) it was 2.54 ± 0.34 pmol h-1 oocyte-1. In addition, the “Activity at pH 6.0” value was determined as 4.71 ± 0.24 pmol h-1 oocyte-1 on PfCRT variant F287A (setting [1]) and 2.81 ± 0.43 pmol h-1 oocyte-1 in the experiment with PfCRT variant E207N (setting [2]). In addition, the R-value was 0.32 ± 0.02 on PfCRT variant F287A (F287A, CQ transport at pH 4.5 / pH 6.0) and 0.93 ± 0.07 with PfCRT variant E207N (E207N, CQ transport at pH 4.5 / pH 6.0). In addition, the “F287A transport activity pH 4.5” value at PfCRT variant F287A (pH 4.5, single replicates, Fig 1d left) is 1.56 pmol oocyte-1 h-1 and 1.62 pmol oocyte-1 h-1 and 1.49 pmol oocyte-1 h-1 and 1.34 pmol oocyte-1 h-1. Also, at PfCRT variant F287A (pH 4.5 vs pH 6.0, Fig 1d left), the “F287 R-value” is 0.32 and 0.33 and 0.38 and 0.26. Besides, the “F287A transport activity pH 6.0” value at PfCRT variant F287A (pH 6.0, single replicates, Fig 1d left) is 4.84 pmol oocyte-1 h-1 and 4.98 pmol oocyte-1 h-1 and 3.89 pmol oocyte-1 h-1 and 5.12 pmol oocyte-1 h-1. Besides, in the experiment with PfCRT variant E207N (pH 4.5, individual replicates, Fig 6b), the “E207N transport activity pH 4.5” value was 3.35 pmol oocyte-1 h-1 and 2.62 pmol oocyte-1 h-1 and 1.45 pmol oocyte-1 h-1 and 2.72 pmol oocyte-1 h-1. In addition, in the experiment with PfCRT variant E207N (pH 6.0, individual replicates, Fig 6b), the “E207N transport activity pH 6.0” value was 3.09 pmol oocyte-1 h-1 and 3.00 pmol oocyte-1 h-1 and 1.41 pmol oocyte-1 h-1 and 3.72 pmol oocyte-1 h-1. Moreover, the E207NR-value with PfCRT variant E207N (ratio of activity pH 4.5 / pH 6.0) was 1.08 and 0.87 and 1.03 and 0.73.
